Laboratory results published in ChEMBL document CHEMBL5291721, “A preclinical secondary pharmacology resource illuminates target-adverse drug reaction associations of marketed drugs” (Nat Commun, 2023).

What was measured:
[1] = target: T1, Endothelin-1 receptor (Homo sapiens, UniProt P25101)
T1 sequence (P25101 whole entry): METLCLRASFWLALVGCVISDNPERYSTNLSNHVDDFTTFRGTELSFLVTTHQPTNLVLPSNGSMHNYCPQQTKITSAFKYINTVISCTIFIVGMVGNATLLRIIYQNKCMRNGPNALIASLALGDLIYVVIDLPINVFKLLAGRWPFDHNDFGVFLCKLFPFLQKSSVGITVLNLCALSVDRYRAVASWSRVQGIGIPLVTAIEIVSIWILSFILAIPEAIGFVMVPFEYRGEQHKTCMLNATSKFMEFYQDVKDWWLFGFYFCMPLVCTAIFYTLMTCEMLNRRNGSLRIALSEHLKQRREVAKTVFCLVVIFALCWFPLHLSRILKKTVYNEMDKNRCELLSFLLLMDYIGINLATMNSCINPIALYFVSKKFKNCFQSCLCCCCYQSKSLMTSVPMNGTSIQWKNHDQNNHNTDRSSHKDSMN

[2] = target: Mu-type opioid receptor (Homo sapiens, UniProt P35372); experiment: biochemical; type: functional
[3] = target: Histamine H3 receptor (Homo sapiens, UniProt Q9Y5N1)
[4] = target: Sodium-dependent serotonin transporter (Homo sapiens, UniProt P31645)
[5] = target: Gamma-aminobutyric acid receptor subunit alpha-1/alpha-2/beta-2/gamma-2 (Homo sapiens, UniProt P14867+P18507+P47869+P47870); type: functional, cell-based
[6] = target: T2, Estrogen receptor (Homo sapiens, UniProt P03372)
T2 sequence (P03372 whole entry): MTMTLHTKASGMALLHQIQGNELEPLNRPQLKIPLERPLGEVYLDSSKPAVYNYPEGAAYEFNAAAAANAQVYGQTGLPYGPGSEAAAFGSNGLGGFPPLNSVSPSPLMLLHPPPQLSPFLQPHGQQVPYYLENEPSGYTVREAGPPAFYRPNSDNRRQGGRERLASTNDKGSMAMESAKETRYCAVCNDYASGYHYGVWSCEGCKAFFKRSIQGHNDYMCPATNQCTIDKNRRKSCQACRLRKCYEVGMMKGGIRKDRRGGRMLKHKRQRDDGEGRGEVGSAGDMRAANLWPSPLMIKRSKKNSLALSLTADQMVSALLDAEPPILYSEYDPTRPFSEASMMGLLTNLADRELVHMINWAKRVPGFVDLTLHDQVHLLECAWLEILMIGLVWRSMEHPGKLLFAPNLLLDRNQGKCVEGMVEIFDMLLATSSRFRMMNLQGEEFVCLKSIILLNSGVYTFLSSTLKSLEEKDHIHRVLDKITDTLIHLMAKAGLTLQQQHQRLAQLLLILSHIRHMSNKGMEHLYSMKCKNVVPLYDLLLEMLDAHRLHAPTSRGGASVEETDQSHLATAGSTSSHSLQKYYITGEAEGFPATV

[7] = target: Beta-3 adrenergic receptor (Homo sapiens, UniProt P13945)
[8] = target: Voltage-dependent N-type calcium channel subunit alpha-1B (Rattus norvegicus, UniProt Q02294); type: functional
[9] = target: Histamine H2 receptor (Homo sapiens, UniProt P25021)
[10] = target: T3, 5-hydroxytryptamine receptor 1A (Homo sapiens, UniProt P08908)
T3 sequence (P08908 whole entry): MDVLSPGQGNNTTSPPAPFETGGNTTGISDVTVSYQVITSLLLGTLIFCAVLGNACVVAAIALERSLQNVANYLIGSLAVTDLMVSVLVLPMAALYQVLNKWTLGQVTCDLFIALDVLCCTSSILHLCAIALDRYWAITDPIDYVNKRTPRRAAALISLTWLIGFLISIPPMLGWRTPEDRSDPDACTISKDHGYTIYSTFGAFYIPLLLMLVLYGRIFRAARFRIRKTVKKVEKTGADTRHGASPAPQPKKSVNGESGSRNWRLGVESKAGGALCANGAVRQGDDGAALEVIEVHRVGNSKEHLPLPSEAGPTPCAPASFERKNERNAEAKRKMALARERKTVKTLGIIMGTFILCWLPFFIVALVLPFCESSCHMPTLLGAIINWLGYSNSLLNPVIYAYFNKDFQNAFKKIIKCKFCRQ

[11] = target: 5-hydroxytryptamine receptor 2B (Homo sapiens, UniProt P41595)
[12] = target: T4, Progesterone receptor (Homo sapiens, UniProt P06401)
T4 sequence (P06401 whole entry): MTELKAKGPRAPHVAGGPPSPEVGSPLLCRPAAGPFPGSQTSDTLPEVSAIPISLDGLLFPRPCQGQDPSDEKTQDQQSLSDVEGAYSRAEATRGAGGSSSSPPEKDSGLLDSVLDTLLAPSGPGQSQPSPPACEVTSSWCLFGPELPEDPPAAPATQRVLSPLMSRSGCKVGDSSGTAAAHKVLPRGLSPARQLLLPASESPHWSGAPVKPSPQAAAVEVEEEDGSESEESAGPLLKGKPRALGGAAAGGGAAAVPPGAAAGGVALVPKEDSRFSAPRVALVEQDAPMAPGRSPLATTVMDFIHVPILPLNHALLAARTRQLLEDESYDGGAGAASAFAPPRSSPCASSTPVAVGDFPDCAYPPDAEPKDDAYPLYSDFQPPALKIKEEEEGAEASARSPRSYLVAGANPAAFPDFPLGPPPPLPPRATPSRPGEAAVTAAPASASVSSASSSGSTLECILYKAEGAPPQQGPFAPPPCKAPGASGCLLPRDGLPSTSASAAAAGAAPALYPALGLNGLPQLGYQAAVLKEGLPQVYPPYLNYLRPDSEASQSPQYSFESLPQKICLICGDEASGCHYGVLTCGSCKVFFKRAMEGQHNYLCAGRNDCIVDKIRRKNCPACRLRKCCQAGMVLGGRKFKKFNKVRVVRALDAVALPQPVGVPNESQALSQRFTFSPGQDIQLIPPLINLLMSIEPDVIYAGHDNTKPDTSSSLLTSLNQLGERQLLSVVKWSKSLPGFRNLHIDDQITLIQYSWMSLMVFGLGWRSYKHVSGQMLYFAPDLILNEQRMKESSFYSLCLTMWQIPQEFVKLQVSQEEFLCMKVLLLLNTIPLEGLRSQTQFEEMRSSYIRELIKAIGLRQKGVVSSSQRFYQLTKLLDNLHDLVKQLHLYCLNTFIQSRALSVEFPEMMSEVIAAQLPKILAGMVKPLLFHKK
Further: assay procedure not described here.

Histamine H2 receptor, sequence (P25021 whole entry): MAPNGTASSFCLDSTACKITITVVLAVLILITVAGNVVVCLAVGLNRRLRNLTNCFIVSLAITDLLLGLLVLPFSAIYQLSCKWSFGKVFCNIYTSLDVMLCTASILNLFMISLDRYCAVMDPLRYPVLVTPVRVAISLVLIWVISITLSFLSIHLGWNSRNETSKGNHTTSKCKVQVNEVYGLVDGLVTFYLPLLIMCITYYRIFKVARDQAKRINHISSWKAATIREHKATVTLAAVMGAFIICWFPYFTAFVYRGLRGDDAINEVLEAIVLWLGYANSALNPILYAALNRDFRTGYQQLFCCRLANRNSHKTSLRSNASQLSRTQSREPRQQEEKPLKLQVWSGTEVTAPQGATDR
Mu-type opioid receptor, sequence (P35372 whole entry): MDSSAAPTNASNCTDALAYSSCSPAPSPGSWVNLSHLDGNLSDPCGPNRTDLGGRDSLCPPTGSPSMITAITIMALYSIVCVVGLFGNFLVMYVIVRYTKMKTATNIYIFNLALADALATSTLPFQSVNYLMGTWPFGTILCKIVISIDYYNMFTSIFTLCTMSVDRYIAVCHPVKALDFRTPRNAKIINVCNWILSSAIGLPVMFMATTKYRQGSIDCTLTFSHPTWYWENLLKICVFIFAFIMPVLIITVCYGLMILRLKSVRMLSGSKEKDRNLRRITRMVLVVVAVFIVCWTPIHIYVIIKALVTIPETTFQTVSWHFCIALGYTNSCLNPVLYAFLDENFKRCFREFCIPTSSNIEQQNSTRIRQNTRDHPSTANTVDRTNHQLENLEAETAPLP
Voltage-dependent N-type calcium channel subunit alpha-1B, sequence (Q02294 whole entry): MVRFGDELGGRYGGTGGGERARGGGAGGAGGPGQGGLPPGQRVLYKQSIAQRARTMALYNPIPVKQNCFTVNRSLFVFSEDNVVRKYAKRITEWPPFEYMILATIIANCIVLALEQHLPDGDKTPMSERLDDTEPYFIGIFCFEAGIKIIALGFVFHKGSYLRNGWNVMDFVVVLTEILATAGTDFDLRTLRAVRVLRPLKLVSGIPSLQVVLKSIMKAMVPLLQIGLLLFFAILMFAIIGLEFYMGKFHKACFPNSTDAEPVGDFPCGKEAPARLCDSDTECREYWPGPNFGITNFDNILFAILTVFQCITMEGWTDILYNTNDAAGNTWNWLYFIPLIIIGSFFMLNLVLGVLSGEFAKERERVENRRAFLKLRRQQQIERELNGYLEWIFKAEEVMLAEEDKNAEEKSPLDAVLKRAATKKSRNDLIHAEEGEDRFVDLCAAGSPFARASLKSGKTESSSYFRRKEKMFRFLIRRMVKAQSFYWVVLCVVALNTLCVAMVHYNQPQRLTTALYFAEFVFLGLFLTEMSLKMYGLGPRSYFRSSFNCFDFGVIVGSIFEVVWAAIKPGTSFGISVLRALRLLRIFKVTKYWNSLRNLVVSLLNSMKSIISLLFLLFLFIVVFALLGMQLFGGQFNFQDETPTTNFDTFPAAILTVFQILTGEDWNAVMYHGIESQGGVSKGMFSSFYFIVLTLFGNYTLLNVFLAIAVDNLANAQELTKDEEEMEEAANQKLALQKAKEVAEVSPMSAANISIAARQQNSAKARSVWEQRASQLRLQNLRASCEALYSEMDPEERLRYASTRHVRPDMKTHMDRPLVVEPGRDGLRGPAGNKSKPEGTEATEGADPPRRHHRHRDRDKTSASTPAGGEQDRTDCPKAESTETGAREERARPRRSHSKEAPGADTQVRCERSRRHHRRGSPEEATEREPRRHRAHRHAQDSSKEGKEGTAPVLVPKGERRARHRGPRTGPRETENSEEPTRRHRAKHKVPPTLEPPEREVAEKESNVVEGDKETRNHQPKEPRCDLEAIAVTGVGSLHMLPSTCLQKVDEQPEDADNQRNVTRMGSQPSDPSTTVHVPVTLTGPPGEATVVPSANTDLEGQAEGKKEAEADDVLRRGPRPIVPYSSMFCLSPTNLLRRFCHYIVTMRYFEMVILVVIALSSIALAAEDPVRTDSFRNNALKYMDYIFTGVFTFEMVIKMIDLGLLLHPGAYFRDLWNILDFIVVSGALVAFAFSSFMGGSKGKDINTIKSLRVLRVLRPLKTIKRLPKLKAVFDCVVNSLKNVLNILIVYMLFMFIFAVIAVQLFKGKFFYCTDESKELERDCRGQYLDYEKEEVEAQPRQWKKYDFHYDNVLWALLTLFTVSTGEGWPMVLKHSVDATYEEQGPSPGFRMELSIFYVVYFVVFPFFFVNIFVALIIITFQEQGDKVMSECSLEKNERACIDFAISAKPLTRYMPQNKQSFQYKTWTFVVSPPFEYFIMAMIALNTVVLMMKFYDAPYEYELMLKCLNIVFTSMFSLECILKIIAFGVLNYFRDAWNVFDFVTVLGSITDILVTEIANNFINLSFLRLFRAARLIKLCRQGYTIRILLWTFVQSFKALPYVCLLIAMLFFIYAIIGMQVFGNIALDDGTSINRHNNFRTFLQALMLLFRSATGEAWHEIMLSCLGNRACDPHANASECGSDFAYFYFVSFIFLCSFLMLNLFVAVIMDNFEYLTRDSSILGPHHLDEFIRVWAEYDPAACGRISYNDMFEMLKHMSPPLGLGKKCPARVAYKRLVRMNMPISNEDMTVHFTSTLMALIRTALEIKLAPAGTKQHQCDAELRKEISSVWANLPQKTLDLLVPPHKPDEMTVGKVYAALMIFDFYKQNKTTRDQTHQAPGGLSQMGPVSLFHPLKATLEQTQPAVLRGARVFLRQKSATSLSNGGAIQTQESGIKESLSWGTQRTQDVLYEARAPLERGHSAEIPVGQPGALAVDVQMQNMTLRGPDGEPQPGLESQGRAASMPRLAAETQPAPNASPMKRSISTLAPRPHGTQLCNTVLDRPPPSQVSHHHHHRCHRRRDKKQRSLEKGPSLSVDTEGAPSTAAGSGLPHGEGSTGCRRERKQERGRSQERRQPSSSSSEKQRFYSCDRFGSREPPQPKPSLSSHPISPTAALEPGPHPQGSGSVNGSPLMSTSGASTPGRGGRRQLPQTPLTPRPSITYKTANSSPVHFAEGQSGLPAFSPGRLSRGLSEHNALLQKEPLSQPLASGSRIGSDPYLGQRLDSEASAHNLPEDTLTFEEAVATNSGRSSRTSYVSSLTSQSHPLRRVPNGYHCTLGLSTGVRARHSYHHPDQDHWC
Sodium-dependent serotonin transporter, sequence (P31645 whole entry): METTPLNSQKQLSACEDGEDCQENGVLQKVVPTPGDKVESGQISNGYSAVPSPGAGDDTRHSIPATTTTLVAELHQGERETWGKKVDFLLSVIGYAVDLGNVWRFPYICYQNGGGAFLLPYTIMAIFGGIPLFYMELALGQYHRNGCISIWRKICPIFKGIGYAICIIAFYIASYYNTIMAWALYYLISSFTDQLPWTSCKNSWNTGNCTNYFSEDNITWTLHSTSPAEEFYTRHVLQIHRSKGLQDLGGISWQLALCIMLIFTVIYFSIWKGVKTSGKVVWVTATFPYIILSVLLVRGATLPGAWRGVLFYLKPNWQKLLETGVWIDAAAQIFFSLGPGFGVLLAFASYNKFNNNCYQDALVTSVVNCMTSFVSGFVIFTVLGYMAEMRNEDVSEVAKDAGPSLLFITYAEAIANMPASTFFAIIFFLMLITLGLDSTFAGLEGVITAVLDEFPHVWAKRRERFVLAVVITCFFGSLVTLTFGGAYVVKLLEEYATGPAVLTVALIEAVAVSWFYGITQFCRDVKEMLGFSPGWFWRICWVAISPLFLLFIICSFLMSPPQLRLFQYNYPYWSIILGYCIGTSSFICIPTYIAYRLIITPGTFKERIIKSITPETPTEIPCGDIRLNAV
5-hydroxytryptamine receptor 2B, sequence (P41595 whole entry): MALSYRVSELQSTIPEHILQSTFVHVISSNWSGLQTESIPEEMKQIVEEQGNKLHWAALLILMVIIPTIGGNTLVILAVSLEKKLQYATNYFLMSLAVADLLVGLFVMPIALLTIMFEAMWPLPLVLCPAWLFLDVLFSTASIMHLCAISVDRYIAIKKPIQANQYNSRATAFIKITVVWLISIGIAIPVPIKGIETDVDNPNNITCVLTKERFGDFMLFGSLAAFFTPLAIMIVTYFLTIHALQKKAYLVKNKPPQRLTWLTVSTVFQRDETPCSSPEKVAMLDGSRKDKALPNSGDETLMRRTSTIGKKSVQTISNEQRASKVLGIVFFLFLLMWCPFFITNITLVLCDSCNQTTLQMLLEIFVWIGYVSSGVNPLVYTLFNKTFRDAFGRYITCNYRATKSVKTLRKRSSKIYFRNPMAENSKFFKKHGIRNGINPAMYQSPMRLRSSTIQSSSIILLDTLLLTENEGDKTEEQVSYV
Beta-3 adrenergic receptor, sequence (P13945 whole entry): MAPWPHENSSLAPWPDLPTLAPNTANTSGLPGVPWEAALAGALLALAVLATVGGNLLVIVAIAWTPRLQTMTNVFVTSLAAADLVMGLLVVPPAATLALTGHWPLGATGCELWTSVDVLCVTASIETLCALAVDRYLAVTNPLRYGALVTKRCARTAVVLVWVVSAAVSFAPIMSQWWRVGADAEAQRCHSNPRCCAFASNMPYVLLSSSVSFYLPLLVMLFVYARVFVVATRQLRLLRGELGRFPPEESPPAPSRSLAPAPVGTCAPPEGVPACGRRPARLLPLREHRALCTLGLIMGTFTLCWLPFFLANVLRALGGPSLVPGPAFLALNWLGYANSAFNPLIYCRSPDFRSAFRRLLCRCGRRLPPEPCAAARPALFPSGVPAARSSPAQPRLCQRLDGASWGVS
Histamine H3 receptor, sequence (Q9Y5N1 whole entry): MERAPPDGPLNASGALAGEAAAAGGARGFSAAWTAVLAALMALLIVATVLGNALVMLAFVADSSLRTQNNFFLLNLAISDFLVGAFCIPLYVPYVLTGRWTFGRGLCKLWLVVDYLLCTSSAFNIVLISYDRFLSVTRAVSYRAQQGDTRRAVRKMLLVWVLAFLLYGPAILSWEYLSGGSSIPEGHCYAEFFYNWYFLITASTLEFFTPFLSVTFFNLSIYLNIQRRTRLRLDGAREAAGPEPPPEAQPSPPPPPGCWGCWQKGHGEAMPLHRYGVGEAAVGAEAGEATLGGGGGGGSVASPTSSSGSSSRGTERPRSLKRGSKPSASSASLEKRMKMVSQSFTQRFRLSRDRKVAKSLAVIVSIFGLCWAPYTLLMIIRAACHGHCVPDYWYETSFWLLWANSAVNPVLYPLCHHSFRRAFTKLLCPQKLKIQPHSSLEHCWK

With Brc1c(NC2=NCCN2)ccc2nccnc12 [BRIMONIDINE] the AC50 [1] was greater than 30 µM, the AC50 [2] was greater than 30 µM and the AC50 [3] was greater than 30 µM.

Work on NC(=O)CN1CC(O)CC1=O (stereo not given) [OXIRACETAM] yielded an AC50 [1] greater than 30 µM, an AC50 [4] greater than 30 µM and an AC50 [2] greater than 30 µM. It also gave an AC50 [5] greater than 30 µM and an AC50 [3] greater than 30 µM.

With C[C@H]1COc2c(C3(N)CC3)c(F)cc3c(=O)c(C(=O)O)cn1c23 [PAZUFLOXACIN] the AC50 [4] was greater than 10 µM.

NC(=O)OCC(COC(N)=O)c1ccccc1 [FELBAMATE] gave an AC50 [4] greater than 10 µM and an AC50 [6] greater than 10 µM.

Clc1ccccc1C(c1ccccc1)(c1ccccc1)n1ccnc1 [CLOTRIMAZOLE] showed an AC50 [7] of 8.78 µM, an AC50 [8] greater than 10 µM and an AC50 [9] of 17.4 µM. For the same compound, the AC50 [10] was greater than 10 µM, the AC50 [3] was greater than 10 µM and the AC50 [11] was greater than 10 µM.

In the case of CC(C)(C)NCC(O)COc1cccc2c1CCC(=O)N2 (stereo not given) [CARTEOLOL], the AC50 [4] is reported as greater than 10 µM.

CC1(C)CCC(CN2CCN(c3ccc(C(=O)NS(=O)(=O)c4ccc(NCC5CCOCC5)c([N+](=O)[O-])c4)c(Oc4cnc5[nH]ccc5c4)c3)CC2)=C(c2ccc(Cl)cc2)C1 [VENETOCLAX] gave an AC50 [4] greater than 30 µM.

Work on O=C1C(O)=C([C@H]2CC[C@H](c3ccc(Cl)cc3)CC2)C(=O)c2ccccc21 [ATOVAQUONE] yielded an AC50 [1] greater than 30 µM, an AC50 [4] greater than 30 µM and an AC50 [2] greater than 30 µM. The AC50 [3] was greater than 30 µM and the AC50 [6] was greater than 30 µM.

Cc1nnc2n1-c1ccc(Cl)cc1C(c1ccccc1Cl)=NC2 [TRIAZOLAM] showed an AC50 [4] greater than 30 µM, an AC50 [12] greater than 30 µM and an AC50 [10] greater than 10 µM. It also gave an AC50 [3] greater than 10 µM.

Compound Nc1nc(Cl)nc2c1ncn2[C@H]1C[C@H](O)[C@@H](CO)O1 [CLADRIBINE] has an AC50 [1] greater than 30 µM, an AC50 [2] greater than 30 µM and an AC50 [3] greater than 30 µM.

Compound CC/C(=C(\c1ccccc1)c1ccc(OCCN(C)C)cc1)c1ccccc1 [TAMOXIFEN] has an AC50 [7] of 6.61 µM, an AC50 [8] greater than 10 µM and an AC50 [9] of 1.75 µM. The AC50 [10] was greater than 10 µM, the AC50 [3] was greater than 30 µM and the AC50 [11] was 0.896 µM.

Compound CC(CC1c2ccccc2CCc2ccccc21)CN(C)C (stereo not given) [BUTRIPTYLINE] has an AC50 [5] greater than 30 µM.

Work on COc1cccc(C2(O)CCCCC2CN(C)C)c1 (stereo not given) [TRAMADOL] yielded an AC50 [7] greater than 30 µM, an AC50 [1] greater than 30 µM and an AC50 [8] greater than 10 µM. It also gave an AC50 [12] greater than 30 µM, an AC50 [9] greater than 10 µM and an AC50 [3] greater than 10 µM. For the same compound, the AC50 [11] was greater than 10 µM and the AC50 [6] was greater than 30 µM.

COc1ccc2c3c1O[C@H]1[C@@H](O)CC[C@H]4[C@@H](C2)N(C)CC[C@@]341 [DIHYDROCODEINE] showed an AC50 [5] greater than 30 µM.

With C#C[C@]1(O)CC[C@H]2[C@@H]3[C@H](C)CC4=C(CCC(=O)C4)[C@H]3CC[C@@]21C [TIBOLONE] the AC50 [1] was greater than 30 µM, the AC50 [2] was greater than 30 µM and the AC50 [3] was greater than 30 µM.

For Cc1c(OCC(F)(F)F)ccnc1C[S+]([O-])c1nc2ccccc2[nH]1 (stereo not given) [LANSOPRAZOLE], the AC50 [7] was greater than 30 µM, the AC50 [1] was greater than 30 µM and the AC50 [8] was greater than 10 µM. For the same compound, the AC50 [12] was greater than 30 µM, the AC50 [9] was 8.52 µM and the AC50 [2] was 4.2 µM. For the same compound, the AC50 [10] was greater than 10 µM and the AC50 [11] was greater than 10 µM.

With COc1ccc(CCNCC(O)COc2cccc(C)c2)cc1OC (stereo not given) [BEVANTOLOL] the AC50 [4] was 3 µM, the AC50 [2] was greater than 30 µM and the AC50 [10] was 1.56 µM. The AC50 [6] was greater than 10 µM.

Work on Fc1ccc(C(c2ccccc2)(c2ccccc2F)n2ccnc2)cc1 (stereo not given) [FLUTRIMAZOLE] yielded an AC50 [1] greater than 30 µM, an AC50 [4] greater than 30 µM and an AC50 [2] greater than 30 µM. The AC50 [3] was greater than 30 µM and the AC50 [6] was greater than 30 µM.

C[C@@H]1O[C@@H](O[C@@H]2C=C3CC[C@@H]4[C@H](CC[C@]5(C)[C@@H](c6ccc(=O)oc6)CC[C@]45O)[C@@]3(C)CC2)[C@H](O)[C@H](O)[C@H]1O [PROSCILLARIDIN] showed an AC50 [1] greater than 30 µM, an AC50 [2] greater than 30 µM and an AC50 [3] greater than 30 µM.
